Molecules are shown by their SMILES.

For one assay, the system named is type 2 diabetes patients. Particulars: oral atorvastatin 10 mg/d for 16 weeks added to conventional antidiabetic; vs control group; cited from earlier work.
For assay [1] the following is noted: oral atorvastatin 10 mg/day, simvastatin 40 mg/day; cited from earlier work.
The test system of another assay is diabetic rats. Kind of assay: Fasting blood glucose assay in diabetic rats after single intraosseous statin injection. The note with it: 1-14 weeks after single intraosseous injection (fluvastatin 8 mg, atorvastatin 4 mg, rosuvastatin 2 mg); tail blood, glucose meter. Type of assay: in vivo, rat.

Experimental for diabetic rats: 36 three-month-old male SD rats (250-300 g) rats were accommodated for one week, in accordance with standard procedures of diabetic rat model, intraperitoneal injection of streptozotocin (STZ, Sigma Company) 40 mg/kg, the next day administration of high fat diet (purchased from Institute of Zoology, recipe: 68.5% base stock, lard 20%, 10% sucrose, 1% cholesterol and 0.5% porcine bile salts).
Two months later, all the rats were abnormally elevated blood glucose (above 19.5 mmol/L), indicate a successful model (Zhouguang Xing animal models of human disease replication methodology Shanghai Science and Technology Literature Press, 2008: 167-168 SHI Xin animal models of human disease People's Health Press, 2008: 301-305). […] Bone wax pinhole puncture closure avoiding leakage and sutured wounds.
After the rats were fasted 6 h, take one drop of blood (about 50 ul) from the rat tail and placed in the blood sugar test paper (Roche), 2 seconds later, fasting blood glucose were determinated by Roche glucose meter (ACCU-CHEK Performa). […]

As for `CC(C)c1c(C(=O)Nc2ccccc2)c(-c2ccccc2)c(-c2ccc(F)cc2)n1CC[C@@H](O)C[C@@H](O)CC(=O)O` [atorvastatin], the blood glucose entry in the assay with type 2 diabetes patients was “much better than the control group”. In addition, the effect on diabetes entry in assay [1] is recorded as “no effect”. Besides, the fasting blood glucose result in the assay with diabetic rats was “significantly reduced”.

On to `CC(C)c1nc(N(C)S(C)(=O)=O)nc(-c2ccc(F)cc2)c1/C=C/[C@@H](O)C[C@@H](O)CC(=O)O` [rosuvastatin], for which the fasting blood glucose result in the assay with diabetic rats is recorded as “significantly reduced”.

The values are drawn from patent publication US10632115B2, “Use of a statin compound as local drug for treating obesity, diabetes, hypertension and hyperlipemia” (Peking University Third Hospital, priority 2015, dated 2020).
